From patent US9512107B2, “Therapeutically active compositions and their methods of use” (Agios Pharmaceuticals, Inc., priority 2012, dated 2016)
Positions count from the first letter of the chain named.

Tests used:
[1] = system: U87MG pLVX-IDH2 R140Q-neo cells; assay: U87MG pLVX-IDH2 R140Q-neo cell based assay, 2-HG in media by LC-MS at 48 hours; conditions: Homo sapiens, U-87 MG
Procedure, shortened: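 U87MG cells stably expressing IDH2 R140Q were seeded overnight, then exposed to compound at 0.2% final DMSO at 37 °C, 5% CO2. 2-HG in the medium was quantified by LC-MS at 48 h. Growth inhibition was read by CellTiter-Glo luminescence at 72 h.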

IDH2 R172K = target: T1, IDH2 R172K (Homo sapiens, UniProt P48735, R172K); assay: IDH2 R172K enzymatic assay (NADPH cofactor depletion, diaphorase/resazurin readout); assay type: biochemical; conditions: read-out: Enz R172K
T1 sequence (P48735 40-452 R172K): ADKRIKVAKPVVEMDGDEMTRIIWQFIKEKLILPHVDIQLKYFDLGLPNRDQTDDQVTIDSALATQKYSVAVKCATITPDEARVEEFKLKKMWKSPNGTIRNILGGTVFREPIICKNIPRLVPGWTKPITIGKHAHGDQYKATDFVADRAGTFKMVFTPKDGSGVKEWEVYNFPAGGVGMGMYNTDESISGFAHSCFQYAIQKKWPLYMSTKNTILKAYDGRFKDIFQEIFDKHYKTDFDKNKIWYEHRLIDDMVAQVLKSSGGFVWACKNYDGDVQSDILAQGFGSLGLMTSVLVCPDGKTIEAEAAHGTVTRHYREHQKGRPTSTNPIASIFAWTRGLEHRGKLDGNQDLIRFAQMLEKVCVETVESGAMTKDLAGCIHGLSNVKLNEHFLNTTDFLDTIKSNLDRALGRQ
Procedure, shortened: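 Test compounds are incubated with the mutant enzyme for one hour at ambient temperature. A substrate mix of 50 μM NADPH plus 6.3 mM α-KG initiates turnover, which proceeds for one hour. Diaphorase and resazurin then halt the reaction by depleting the cofactor and convert the remaining NADPH into a fluorescent signal.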

IDH2 R140Q = target: T2, IDH2 R140Q (Homo sapiens, UniProt P48735, R140Q); assay: IDH2 R140Q enzymatic assay (cofactor depletion, similar format); assay type: biochemical; conditions: read-out: Enz R140Q
T2 sequence (P48735 40-452 R140Q): T1 sequence (P48735 40-452 R172K) with R101Q, K133R

SMILES | IC50 [1] [nM] | IC50 (IDH2 R172K) [nM] | IC50 (IDH2 R140Q) [nM]
CC(C)Nc1nc(Nc2cccc(S(C)(=O)=O)c2)nc(-c2nc(F)ccc2F)n1 [Compound 454] | 100 to 1000 | 1000 to 10000 | 100 to 1000
CC(C)Nc1nc(Nc2cc(F)cc(F)c2)nc(-c2nccc(C(F)(F)F)n2)n1 [Compound 455, N-(3,5-Difluoro-phenyl)-N′-isopropyl-6-(4-trifluoromethyl-pyrimidin-2-yl)-[1,3,5]triazine-2,4-diamine] | < 100 | < 100 | 100 to 1000
CC(C)Nc1nc(Nc2cncc(F)c2)nc(-c2ncccc2F)n1 [Compound 456, N-(5-Fluoro-pyridin-3-yl)-6-(3-fluoro-pyridin-2-yl)-N′-isopropyl-[1,3,5]triazine-2,4-diamine] | < 100 | 100 to 1000 | 100 to 1000
CC(C)Nc1nc(Nc2cc(F)cc(F)c2)nc(-c2nccc(N)n2)n1 [Compound 458, 6-(4-Amino-pyrimidin-2-yl)-N-(3,5-difluoro-phenyl)-N′-isopropyl-[1,3,5]triazine-2,4-diamine] | < 100 | 100 to 1000 | 100 to 1000
CC(C)Nc1nc(Nc2cc(F)cc(F)c2)nc(-c2ncccc2F)n1 [Compound 459, N-(3,5-Difluoro-phenyl)-6-(3-fluoro-pyridin-2-yl)-N′-isopropyl-[1,3,5]triazine-2,4-diamine] | < 100 | < 100 | < 100
CC(C)Nc1nc(Nc2cc(F)cc(F)c2)nc(-c2nc(F)ccc2F)n1 [Compound 460, N-(3,5-Difluoro-phenyl)-6-(3,6-difluoro-pyridin-2-yl)-N′-isopropyl-[1,3,5]triazine-2,4-diamine] | < 100 | < 100 | < 100
COc1ccc(F)c(-c2nc(Nc3cc(F)cc(F)c3)nc(NC(C)C)n2)n1 [Compound 461, N-(3,5-Difluoro-phenyl)-6-(3-fluoro-6-methoxy-pyridin-2-yl)-N′-isopropyl-[1,3,5]triazine-2,4-diamine] | < 100 | < 100 | < 100
CC(C)Nc1nc(Nc2ccc(F)nc2)nc(-c2cccc(N)n2)n1 [Compound 462, 6-(6-Amino-pyridin-2-yl)-N-(6-fluoro-pyridin-3-yl)-N′-isopropyl-[1,3,5]triazine-2,4-diamine] | 100 to 1000 | 100 to 1000 | 100 to 1000
CC#Cc1cccc(-c2nc(Nc3cc(F)cc(F)c3)nc(NC(C)C)n2)n1 [Compound 463, N-(3,5-Difluoro-phenyl)-N′-isopropyl-6-(6-prop-1-ynyl-pyridin-2-yl)-[1,3,5]triazine-2,4-diamine] | < 100 | < 100 | 100 to 1000
CNc1cccc(-c2nc(Nc3cc(F)cc(F)c3)nc(NC(C)C)n2)n1 [Compound 465] | < 100 | < 100 | 100 to 1000
CC(C)Nc1nc(Nc2cccc(S(C)(=O)=O)c2)nc(-c2c(F)cccc2F)n1 [Compound 466, 6-(2,6-difluorophenyl)-N2-isopropyl-N4-(3-(methylsulfonyl)phenyl)-1,3,5-triazine-2,4-diamine] | < 100 | 100 to 1000 | 100 to 1000
CC#Cc1cccc(-c2nc(Nc3cccc(F)c3)nc(NC(C)C)n2)n1 [Compound 467, N-(3-Fluoro-phenyl)-N′-isopropyl-6-(6-prop-1-ynyl-pyridin-2-yl)-[1,3,5]triazine-2,4-diamine] | 100 to 1000 | 100 to 1000 | 100 to 1000
CC(C)Nc1nc(Nc2cncc(C(F)(F)F)c2)nc(-c2cccc(N)n2)n1 [Compound 468, 6-(6-Amino-pyridin-2-yl)-N-isopropyl-N′-(5-trifluoromethyl-pyridin-3-yl)-[1,3,5]triazine-2,4-diamine] | < 100 | < 100 | 100 to 1000
CC(C)Nc1nc(Nc2cc(F)cc(F)c2)nc(-c2nc(O)ccc2F)n1 [Compound 469, 6-[4-(3,5-Difluoro-phenylamino)-6-isopropylamino-[1,3,5]triazin-2-yl]-5-fluoro-pyridin-2-ol] | < 100 | < 100 | < 100
CC(C)Nc1nc(Nc2cncc(F)c2)nc(-c2cccc(N)n2)n1 [Compound 470, 6-(6-Amino-pyridin-2-yl)-N-(5-fluoro-pyridin-3-yl)-N′-isopropyl-[1,3,5]triazine-2,4-diamine] | < 100 | 100 to 1000 | 100 to 1000
Cc1nc(-c2nc(Nc3cccc(F)c3)nc(NC(C)C)n2)co1 [Compound 471, N-(3-Fluoro-phenyl)-N′-isopropyl-6-(2-methyl-oxazol-4-yl)-[1,3,5]triazine-2,4-diamine] | < 100 | 100 to 1000 | 100 to 1000
Cc1cc(-c2nc(Nc3cccc(F)c3)nc(NC(C)C)n2)no1 [Compound 472, N-(3-Fluoro-phenyl)-N′-isopropyl-6-(5-methyl-isoxazol-3-yl)-[1,3,5]triazine-2,4-diamine] | < 100 | 100 to 1000 | < 100
CC(C)Nc1nc(Nc2cccc(F)c2)nc(-c2c(F)cccc2F)n1 [Compound 473, 6-(2,6-Difluoro-phenyl)-N-(3-fluoro-phenyl)-N′-isopropyl-[1,3,5]triazine-2,4-diamine] | < 100 | < 100 | < 100
CC(C)Nc1nc(Nc2cncc(F)c2)nc(-c2c(F)cccc2F)n1 [Compound 474, 6-(2,6-Difluoro-phenyl)-N-(5-fluoro-pyridin-3-yl)-N′-isopropyl-[1,3,5]triazine-2,4-diamine] | < 100 | < 100 | 100 to 1000
CC(C)Nc1nc(Nc2cccc(F)c2)nc(-c2nc(C(F)(F)F)cs2)n1 [Compound 475, N-(3-Fluoro-phenyl)-N′-isopropyl-6-(4-trifluoromethyl-thiazol-2-yl)-[1,3,5]triazine-2,4-diamine] | < 100 | < 100 | < 100
Cc1nc(-c2nc(Nc3cc(F)cc(F)c3)nc(NC(C)C)n2)co1 [Compound 476, N-(3,5-Difluoro-phenyl)-N′-isopropyl-6-(2-methyl-oxazol-4-yl)-[1,3,5]triazine-2,4-diamine] | < 100 | 100 to 1000 | < 100
CC(C)Nc1nc(Nc2cc(F)cc(F)c2)nc(-c2nc(N)ccc2F)n1 [Compound 477, 6-(6-amino-3-fluoropyridin-2-yl)-N2-(3,5-difluorophenyl)-N4-isopropyl-1,3,5-triazine-2,4-diamine] | < 100 | < 100 | 100 to 1000
Nc1ccnc(-c2nc(NCC3CC3)nc(Nc3cc(F)cc(F)c3)n2)n1 [Compound 478, 6-(4-Amino-pyrimidin-2-yl)-N-cyclopropylmethyl-N′-(3,5-difluoro-phenyl)-[1,3,5]triazine-2,4-diamine] | < 100 | < 100 | 100 to 1000
CC(C)(C)Nc1nc(Nc2cc(F)cc(F)c2)nc(-c2nccc(N)n2)n1 [Compound 479, 6-(4-Amino-pyrimidin-2-yl)-N-tert-butyl-N′-(3,5-difluoro-phenyl)-[1,3,5]triazine-2,4-diamine] | < 100 | 100 to 1000 | 100 to 1000
Nc1ccnc(-c2nc(NCC(F)(F)F)nc(Nc3cc(F)cc(F)c3)n2)n1 [Compound 480, 6-(4-Amino-pyrimidin-2-yl)-N-(3,5-difluoro-phenyl)-N′-(2,2,2-trifluoro-ethyl)-[1,3,5]triazine-2,4-diamine] | < 100 | 100 to 1000 | 100 to 1000
CC(C)Nc1nc(Nc2cc(F)cc(F)c2)nc(-c2nc(N)cc(C(F)(F)F)n2)n1 [Compound 481, 6-(4-amino-6-(trifluoromethyl)pyrimidin-2-yl)-N2-(3,5-difluorophenyl)-N4-isopropyl-1,3,5-triazine-2,4-diamine] | < 100 | < 100 | 100 to 1000
CC(C)Nc1nc(Nc2cc(F)cc(F)c2)nc(-c2ccnc(N)n2)n1 [Compound 482, 6-(2-Amino-pyrimidin-4-yl)-N-(3,5-difluoro-phenyl)-N′-isopropyl-[1,3,5]triazine-2,4-diamine] | < 100 | < 100 | 100 to 1000
CC(C)Nc1nc(Nc2cccc(S(C)(=O)=O)c2)nc(-c2cc(Cl)cc(Cl)n2)n1 [Compound 483, 6-(4,6-dichloropyridin-2-yl)-N2-isopropyl-N4-(3-(methylsulfonyl)phenyl)-1,3,5-triazine-2,4-diamine] | 100 to 1000 | 1000 to 10000 | 100 to 1000
